Experimental data taken from ChEMBL document CHEMBL1145159 (J Med Chem, 2005).
pEC50, pIC50: −log10 of the molar value. “And” between values parts separate entries of the source, which are not always exact repeats. Equal entries are not always repeated. Peptide text beside a SMILES is read from it.

How the values were obtained:
[1] = target: T1, Neuronal acetylcholine receptor; alpha3/beta2 (Homo sapiens, UniProt P17787+P32297); experiment: Inhibitory concentration against Nicotinic acetylcholine receptor alpha3-beta2; format: protein-complex assay
[2] = target: T2, Neuronal acetylcholine receptor; alpha3/beta4 (Homo sapiens, UniProt P30926+P32297); experiment: Inhibitory concentration against Nicotinic acetylcholine receptor alpha3-beta4; format: protein-complex assay
[3] = target: T3, Neuronal acetylcholine receptor; alpha4/beta2 (Homo sapiens, UniProt P17787+P43681); experiment: (§1) Inhibitory concentration against Nicotinic acetylcholine receptor alpha4-beta2; format: protein-complex assay
[4] = target: T4, Neuronal acetylcholine receptor subunit alpha-7 (Homo sapiens, UniProt P36544); experiment: Inhibitory concentration against Nicotinic acetylcholine receptor alpha 7
[5] = target: T5, Neuronal acetylcholine receptor; alpha2/beta4 (Homo sapiens, UniProt P30926+Q15822); experiment: Inhibitory concentration against Nicotinic acetylcholine receptor alpha2-beta4; format: protein-complex assay
[6] = target: T2, Neuronal acetylcholine receptor; alpha3/beta4; experiment: Maximal response against Nicotinic acetylcholine receptor alpha3-beta4; format: protein-complex assay
[7] = target: T3, Neuronal acetylcholine receptor; alpha4/beta2; experiment: Maximal response against Nicotinic acetylcholine receptor alpha4-beta2; format: protein-complex assay
[8] = target: T6, Neuronal acetylcholine receptor; alpha4/beta4 (Homo sapiens, UniProt P30926+P43681); experiment: Maximal response against Nicotinic acetylcholine receptor alpha4-beta4; format: protein-complex assay
[9] = target: T5, Neuronal acetylcholine receptor; alpha2/beta4; experiment: Maximal response against Nicotinic acetylcholine receptor alpha2-beta4; format: protein-complex assay
[10] = target: T1, Neuronal acetylcholine receptor; alpha3/beta2; experiment: Maximal response against Nicotinic acetylcholine receptor alpha3-beta2; format: protein-complex assay
[11] = target: T4, Neuronal acetylcholine receptor subunit alpha-7; experiment: Effective concentration against Nicotinic acetylcholine receptor alpha 7
[12] = target: Neuronal acetylcholine receptor subunit alpha-7 (Rattus norvegicus) (UniProt Q05941); experiment: Maximal response against Nicotinic acetylcholine receptor alpha 7
[13] = target: T5, Neuronal acetylcholine receptor; alpha2/beta4; experiment: Maximal response against Nicotinic acetylcholine receptor alpha2-beta4 expressed in HEK293 cells; format: cell-based
[14] = target: T1, Neuronal acetylcholine receptor; alpha3/beta2; experiment: Maximal response against Nicotinic acetylcholine receptor alpha3-beta2 expressed in HEK293 cells; format: cell-based
[15] = target: T3, Neuronal acetylcholine receptor; alpha4/beta2; experiment: Maximal response against Nicotinic acetylcholine receptor alpha4-beta2 expressed in HEK293 cells; format: cell-based
[16] = target: T3, Neuronal acetylcholine receptor; alpha4/beta2; experiment: as §1; format: protein-complex assay; remark: listed apart in the source
[17] = target: T2, Neuronal acetylcholine receptor; alpha3/beta4; experiment: Effective concentration against Nicotinic acetylcholine receptor alpha3-beta4; format: protein-complex assay
[18] = target: T3, Neuronal acetylcholine receptor; alpha4/beta2; experiment: Effective concentration against Nicotinic acetylcholine receptor alpha4-beta2; format: protein-complex assay
[19] = target: T6, Neuronal acetylcholine receptor; alpha4/beta4; experiment: Effective concentration against Nicotinic acetylcholine receptor alpha4-beta4; format: protein-complex assay
[20] = target: T1, Neuronal acetylcholine receptor; alpha3/beta2; experiment: Effective concentration against Nicotinic acetylcholine receptor alpha3-beta2; format: protein-complex assay
[21] = Effective concentration against Nicotinic acetylcholine receptor alpha4-beta2 expressed in xenopus oocytes; format: cell-based; settings: oocyte
[22] = Effective concentration against Nicotinic acetylcholine receptor alpha2-beta4 expressed in xenopus oocytes; format: cell-based; settings: oocyte
[23] = target: T1, Neuronal acetylcholine receptor; alpha3/beta2; experiment: Effective concentration against Nicotinic acetylcholine receptor alpha3-beta2 expressed in xenopus oocytes; format: cell-based, Oocyte
[24] = Effective concentration against Nicotinic acetylcholine receptor alpha3-beta4 expressed in xenopus oocytes; format: cell-based; settings: oocyte
[25] = Effective concentration against Nicotinic acetylcholine receptor alpha4-beta4 expressed in xenopus oocytes; format: cell-based; settings: oocyte

T5 sequence (P30926 whole entry): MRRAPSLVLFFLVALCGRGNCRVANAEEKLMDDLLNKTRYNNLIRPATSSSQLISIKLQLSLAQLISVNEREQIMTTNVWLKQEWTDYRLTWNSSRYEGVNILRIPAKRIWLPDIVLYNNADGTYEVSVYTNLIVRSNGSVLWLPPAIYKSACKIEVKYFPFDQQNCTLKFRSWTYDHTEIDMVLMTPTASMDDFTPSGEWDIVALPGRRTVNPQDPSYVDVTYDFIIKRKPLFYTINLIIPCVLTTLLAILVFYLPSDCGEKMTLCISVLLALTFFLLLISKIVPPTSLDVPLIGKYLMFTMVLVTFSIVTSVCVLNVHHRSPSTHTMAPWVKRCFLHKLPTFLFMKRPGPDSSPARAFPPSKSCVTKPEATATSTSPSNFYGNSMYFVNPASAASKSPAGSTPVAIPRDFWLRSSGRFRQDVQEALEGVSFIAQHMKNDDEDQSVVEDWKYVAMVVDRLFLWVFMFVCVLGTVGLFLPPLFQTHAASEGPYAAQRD
T5 sequence (Q15822 whole entry): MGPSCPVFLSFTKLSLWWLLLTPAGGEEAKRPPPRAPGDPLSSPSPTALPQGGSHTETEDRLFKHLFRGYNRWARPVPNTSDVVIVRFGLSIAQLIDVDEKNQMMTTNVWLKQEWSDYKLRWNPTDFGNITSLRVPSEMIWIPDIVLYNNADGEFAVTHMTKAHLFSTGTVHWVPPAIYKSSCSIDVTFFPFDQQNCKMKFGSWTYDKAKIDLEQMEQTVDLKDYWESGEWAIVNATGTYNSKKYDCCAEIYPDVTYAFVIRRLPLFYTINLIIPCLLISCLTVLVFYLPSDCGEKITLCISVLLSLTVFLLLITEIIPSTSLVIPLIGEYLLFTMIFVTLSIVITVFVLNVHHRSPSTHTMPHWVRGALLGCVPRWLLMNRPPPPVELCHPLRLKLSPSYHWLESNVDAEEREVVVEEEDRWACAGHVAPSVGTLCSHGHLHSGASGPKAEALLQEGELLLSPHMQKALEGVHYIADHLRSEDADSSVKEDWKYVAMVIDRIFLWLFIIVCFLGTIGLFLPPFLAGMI
T2 sequence (P30926 whole entry): as the sequence (P30926 whole entry) above
T2 sequence (P32297 whole entry): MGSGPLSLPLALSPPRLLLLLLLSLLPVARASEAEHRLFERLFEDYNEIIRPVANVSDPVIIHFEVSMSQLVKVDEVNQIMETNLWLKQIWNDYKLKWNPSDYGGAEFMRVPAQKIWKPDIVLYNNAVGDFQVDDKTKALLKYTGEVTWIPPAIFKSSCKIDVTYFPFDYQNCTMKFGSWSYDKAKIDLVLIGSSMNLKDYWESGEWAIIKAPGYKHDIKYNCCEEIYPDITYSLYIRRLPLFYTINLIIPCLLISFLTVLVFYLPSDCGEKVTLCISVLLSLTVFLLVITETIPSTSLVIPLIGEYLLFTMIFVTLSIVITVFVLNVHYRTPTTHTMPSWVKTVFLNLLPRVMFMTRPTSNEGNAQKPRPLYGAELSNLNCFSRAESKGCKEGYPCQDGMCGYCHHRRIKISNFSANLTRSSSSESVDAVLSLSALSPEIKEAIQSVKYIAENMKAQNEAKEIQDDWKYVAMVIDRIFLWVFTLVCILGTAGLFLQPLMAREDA
T6 sequence (P30926 whole entry): as the sequence (P30926 whole entry) above
T6 sequence (P43681 whole entry): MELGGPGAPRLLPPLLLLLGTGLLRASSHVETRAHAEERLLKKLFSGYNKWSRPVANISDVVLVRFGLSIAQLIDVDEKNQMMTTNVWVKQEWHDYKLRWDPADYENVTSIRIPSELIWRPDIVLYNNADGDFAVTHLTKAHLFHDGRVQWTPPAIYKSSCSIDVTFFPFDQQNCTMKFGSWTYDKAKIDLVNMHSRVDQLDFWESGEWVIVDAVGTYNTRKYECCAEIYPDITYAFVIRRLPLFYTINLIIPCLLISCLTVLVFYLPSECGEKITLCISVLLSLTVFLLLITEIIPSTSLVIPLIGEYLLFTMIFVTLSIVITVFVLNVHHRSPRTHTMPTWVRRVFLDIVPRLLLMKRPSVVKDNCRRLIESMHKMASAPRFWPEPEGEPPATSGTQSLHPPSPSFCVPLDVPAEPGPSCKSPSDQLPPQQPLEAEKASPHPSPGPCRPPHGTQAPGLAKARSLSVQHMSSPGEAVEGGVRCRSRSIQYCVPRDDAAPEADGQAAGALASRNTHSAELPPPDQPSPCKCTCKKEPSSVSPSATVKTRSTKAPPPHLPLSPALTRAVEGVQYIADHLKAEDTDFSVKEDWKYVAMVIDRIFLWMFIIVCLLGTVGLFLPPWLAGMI
Sequence of Neuronal acetylcholine receptor subunit alpha-7 (Rattus norvegicus) (Q05941 whole entry): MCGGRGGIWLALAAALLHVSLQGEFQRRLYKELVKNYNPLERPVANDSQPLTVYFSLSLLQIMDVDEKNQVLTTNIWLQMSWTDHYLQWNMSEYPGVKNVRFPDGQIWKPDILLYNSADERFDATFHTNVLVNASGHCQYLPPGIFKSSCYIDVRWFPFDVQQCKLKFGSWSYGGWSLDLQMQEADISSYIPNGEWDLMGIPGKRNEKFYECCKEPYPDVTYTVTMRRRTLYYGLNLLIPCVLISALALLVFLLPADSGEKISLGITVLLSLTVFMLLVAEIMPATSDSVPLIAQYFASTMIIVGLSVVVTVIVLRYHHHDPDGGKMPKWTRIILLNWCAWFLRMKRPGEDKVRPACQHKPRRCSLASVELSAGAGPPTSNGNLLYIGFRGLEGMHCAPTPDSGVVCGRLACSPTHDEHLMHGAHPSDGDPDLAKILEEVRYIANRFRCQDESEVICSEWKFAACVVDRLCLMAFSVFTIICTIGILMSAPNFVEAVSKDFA
T4 sequence (P36544 whole entry): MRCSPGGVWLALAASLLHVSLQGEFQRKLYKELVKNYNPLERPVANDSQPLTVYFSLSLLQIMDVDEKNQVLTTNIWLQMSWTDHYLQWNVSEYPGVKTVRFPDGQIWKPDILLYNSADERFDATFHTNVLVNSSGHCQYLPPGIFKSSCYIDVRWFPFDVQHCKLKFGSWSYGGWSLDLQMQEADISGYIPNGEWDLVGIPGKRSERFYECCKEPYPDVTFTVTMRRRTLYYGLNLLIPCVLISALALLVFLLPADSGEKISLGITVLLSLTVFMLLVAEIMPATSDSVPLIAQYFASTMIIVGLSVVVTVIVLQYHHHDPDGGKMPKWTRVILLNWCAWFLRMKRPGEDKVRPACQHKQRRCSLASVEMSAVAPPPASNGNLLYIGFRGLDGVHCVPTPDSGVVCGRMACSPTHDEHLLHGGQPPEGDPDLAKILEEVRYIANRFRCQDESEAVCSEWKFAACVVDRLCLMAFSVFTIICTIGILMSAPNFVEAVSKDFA
T1 sequence (P17787 whole entry): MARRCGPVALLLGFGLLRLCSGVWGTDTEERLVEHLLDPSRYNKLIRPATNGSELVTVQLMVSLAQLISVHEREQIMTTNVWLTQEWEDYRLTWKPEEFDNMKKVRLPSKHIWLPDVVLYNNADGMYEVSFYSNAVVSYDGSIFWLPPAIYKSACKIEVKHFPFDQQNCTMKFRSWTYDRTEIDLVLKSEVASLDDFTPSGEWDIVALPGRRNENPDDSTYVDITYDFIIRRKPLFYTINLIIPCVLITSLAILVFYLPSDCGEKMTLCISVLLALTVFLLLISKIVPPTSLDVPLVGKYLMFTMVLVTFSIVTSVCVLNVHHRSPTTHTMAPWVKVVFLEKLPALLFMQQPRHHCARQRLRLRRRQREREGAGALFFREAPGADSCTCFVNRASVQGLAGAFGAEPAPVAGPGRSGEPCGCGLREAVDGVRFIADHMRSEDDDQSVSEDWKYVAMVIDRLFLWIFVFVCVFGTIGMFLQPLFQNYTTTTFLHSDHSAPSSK
T1 sequence (P32297 whole entry): as the sequence (P32297 whole entry) above
T3 sequence (P17787 whole entry): as the sequence (P17787 whole entry) above
T3 sequence (P43681 whole entry): as the sequence (P43681 whole entry) above

C[C@H](NC(=O)[C@H](C)NC(=O)[C@H](CS)NC(=O)[C@H](C)NC(=O)[C@@H]1CCCN1C(=O)[C@H](Cc1c[nH]cn1)NC(=O)[C@H](CO)NC(=O)[C@H](CS)NC(=O)[C@H](CS)NC(=O)CNC(=O)CN)C(=O)N[C@@H](CC(N)=O)C(=O)N[C@@H](CC(N)=O)C(=O)N[C@@H](CCC(N)=O)C(=O)N[C@@H](CC(=O)O)C(=O)N[C@@H](Cc1ccc(O)cc1)C(=O)N[C@@H](CS)C(N)=O
pIC50 [1]: 9.52 | pIC50 [2]: 9.52 | pIC50 [3]: 9.52 | pIC50 [4]: 9.52

CCN1C[C@]2(COC(=O)c3ccccc3N3C(=O)C[C@H](C)C3=O)CC[C@H](OC)[C@@]34[C@@H]5C[C@H]6[C@H](OC)[C@@H]5[C@](O)(C[C@@H]6OC)[C@](O)([C@@H](OC)[C@H]23)[C@@H]14 [METHYLLYCACONITINE]
pIC50 [5]: < 6.00 | pIC50 [1]: < 6.00 | pIC50 [2]: < 6.00 | pIC50 [4]: < 6.00

CC(NC(C)(C)C)C(=O)c1cccc(Cl)c1 (configuration not stated) [BUPROPION]
pIC50 [4]: 4.30

c1cncc(C2CC3CCC2N3)c1 (configuration not stated)
Rmax [6]: 61% | Rmax [7]: 112% | Rmax [8]: 147%

CN1CCC[C@H]1CCSc1ccc(O)cc1
Rmax [9]: 102% | Rmax [10]: 9% | Rmax [6]: 71% | Rmax [7]: 13% | Rmax [8]: 62% | pEC50 [11]: < 5.00

Clc1ccc(C2CC3CCC2N3)cn1 (configuration not stated)
Rmax [8]: 99% and 85% | Rmax [12]: 97% | Rmax [13]: 115% | Rmax [14]: 163% | Rmax [15]: 117%

CNC1(C)C2CCC(C2)C1(C)C (configuration not stated) [MECAMYLAMINE]
pIC50 [5]: 5.51 and 4.80 | pIC50 [1]: 6.55 | pIC50 [4]: 4.91 | Concentration [16]: 0.78 µM

C[C@H](NC(=O)[C@H](Cc1ccccc1)NC(=O)[C@H](CS)NC(=O)[C@@H]1CCCN1C(=O)[C@@H]1CCCN1C(=O)[C@H](Cc1ccc(O)cc1)NC(=O)[C@H](CO)NC(=O)[C@H](CS)NC(=O)[C@H](CS)NC(=O)CN)C(=O)N[C@H](C(=O)N[C@@H](CC(N)=O)C(=O)N[C@@H](CO)C(=O)N[C@@H](CC(=O)O)C(=O)N[C@@H](Cc1ccc(O)cc1)C(=O)N[C@@H](CS)C(N)=O)[C@@H](C)O
pIC50 [2]: < 6.12

Clc1ccc(OC[C@H]2CCN2)cn1
Rmax [6]: 116%

O=c1c(I)ccc2n1C[C@@H]1CNC[C@H]2C1
Rmax [7]: 47% | Rmax [8]: 105% | Rmax [12]: 107%

O=C(NC1CN2CCC1CC2)c1ccc(-c2ccccn2)s1 (configuration not stated)
Rmax [12]: 100% | pEC50 [17]: < 5.00 | pEC50 [18]: < 5.00 | pEC50 [19]: < 5.00

c1cnc2c(c1)O[C@H]1CCN3CC[C@@]1(C2)C3 [DIANICLINE]
Rmax [7]: 19% | pEC50 [20]: < 4.00 | pEC50 [18]: < 4.00

O=c1c(Br)ccc2n1C[C@@H]1CNC[C@H]2C1
Rmax [7]: 23% | Rmax [8]: 70% | Rmax [12]: 100%

CC[N+](CC)(CC)CCOc1ccc(/C=C/c2ccccc2)cc1
Concentration [16]: 3.2 µM

H-AGGSDRRCRWR-NH2
pIC50 [4]: 6.36

CN1CCC[C@H]1COc1cnc(Cl)c(-c2ccc(Cl)cc2)c1
pIC50 [2]: 5.04 | pIC50 [4]: 5.07 | Concentration [16]: 0.96 µM

O=C(NC1CN2CCC1CC2)c1ccc(-c2ccsc2)s1 (configuration not stated)
Rmax [12]: 100% | pEC50 [17]: < 5.00 | pEC50 [18]: < 5.00 | pEC50 [19]: < 5.00

c1cncc(OC[C@@H]2CCN2)c1
Rmax [6]: 100% | Rmax [7]: 185% | Rmax [12]: 100%

Clc1ccc(C2=CCC[C@H]3CCC2N3)cn1
Rmax [9]: 50% | Rmax [10]: 50% | Rmax [6]: 50% | Rmax [7]: 15% | Rmax [8]: 70% | Rmax [12]: 55%

CN(C)c1ccc(/C=C/C=C2\CCCN=C2c2cccnc2)cc1
Rmax [7]: 0% | Rmax [12]: 76%

COc1ccc(/C=C2\CCCN=C2c2cccnc2)c(OC)c1 [GTS-21]
Rmax [7]: 0% | Rmax [12]: 23% and 28% | pEC50 [17]: < 5.00 | pEC50 [18]: < 5.00 | pEC50 [19]: < 5.00

Fc1ccc(C2CC3CCC2N3)cn1 (configuration not stated)
Rmax [6]: 40% | Rmax [7]: 41% | Rmax [8]: 131%

O=c1cccc2n1C[C@@H]1CNC[C@H]2C1 [CYTISINICLINE]
Rmax [9]: 58% | Rmax [10]: 23 µM | Rmax [7]: 11% and 2% | Rmax [12]: 90% and 105% | Rmax [14]: 55% | Rmax [15]: 42% | pEC50 [21]: 5.57 | pEC50 [22]: 4.41 | pEC50 [23]: 4.17 | pEC50 [24]: 4.14 | pEC50 [25]: 6.05

COc1cc2c(cn1)C1NCCC1CC2 (configuration not stated)
Rmax [9]: 22% | Rmax [6]: 5% | Rmax [7]: 8% | Rmax [8]: 44% | pEC50 [11]: < 3.52

Clc1ccc(OC[C@@H]2CCN2)cn1
Rmax [6]: 166% | Rmax [7]: 161% | Rmax [12]: 85%

CSCC[C@H](NC(=O)[C@H](CC(N)=O)NC(=O)[C@H](CS)NC(=O)[C@@H]1CCCN1C(=O)[C@H](CCCNC(=N)N)NC(=O)[C@H](CC(=O)O)NC(=O)[C@H](CO)NC(=O)[C@H](CS)NC(=O)[C@H](CS)NC(=O)CN)C(=O)N[C@@H](CC(N)=O)C(=O)N[C@@H](CC(N)=O)C(=O)N1CCC[C@H]1C(=O)N[C@@H](CC(=O)O)C(=O)N[C@@H](Cc1ccc(O)cc1)C(=O)N[C@@H](CS)C(N)=O (H-GCCSDRPCNMNNPDYC-NH2)
pIC50 [1]: 7.52 | pIC50 [2]: 7.52 | pIC50 [4]: 7.52

CC(=O)CCN1C[C@@H]2C[C@H](C1)c1cccc(=O)n1C2
Rmax [6]: 11% | Rmax [7]: 3% | Rmax [12]: > 100%

C[C@H](NC(=O)[C@H](Cc1ccccc1)NC(=O)[C@H](CS)NC(=O)[C@@H]1CCCN1C(=O)[C@@H]1CCCN1C(=O)[C@H](Cc1ccc(O)cc1)NC(=O)[C@H](CO)NC(=O)[C@H](CS)NC(=O)[C@H](CS)NC(=O)CN)C(=O)N[C@H](C(=O)N[C@@H](CC(N)=O)C(=O)N[C@@H](CO)C(=O)NCC(=O)N[C@@H](Cc1ccc(O)cc1)C(=O)N[C@@H](CS)C(N)=O)[C@@H](C)O
pIC50 [2]: < 6.12

Cc1ncccc1OC[C@@H]1CCN1
Rmax [6]: < 15% | Rmax [12]: > 1000%

C[N+](C)(C)CCO
Rmax [12]: 90% and 100%

CC[C@H](C)[C@H](NC(=O)[C@H](Cc1c[nH]cn1)NC(=O)[C@H](CCC(N)=O)NC(=O)[C@H](CC(N)=O)NC(=O)[C@H](CC(N)=O)NC(=O)CNC(=O)[C@H](C)NC(=O)[C@H](CS)NC(=O)[C@H](C)NC(=O)[C@@H]1CCCN1C(=O)[C@H](Cc1c[nH]cn1)NC(=O)[C@H](CO)NC(=O)[C@H](CS)NC(=O)[C@H](CS)NC(=O)CN)C(=O)N[C@@H](CS)C(N)=O
pIC50 [1]: 8.96 | pIC50 [3]: 8.96 | pIC50 [4]: 8.96

CC(C)C[C@H](NC(=O)[C@H](C)NC(=O)[C@H](CS)NC(=O)[C@@H]1CCCN1C(=O)[C@@H]1CCCN1C(=O)[C@H](CC(C)C)NC(=O)[C@H](CO)NC(=O)[C@H](CS)NC(=O)[C@H](CS)NC(=O)CN)C(=O)N[C@@H](CO)C(=O)N[C@@H](CC(N)=O)C(=O)N1CCC[C@H]1C(=O)N[C@@H](CC(=O)O)C(=O)N[C@@H](Cc1ccc(O)cc1)C(=O)N[C@@H](CS)C(N)=O (H-GCCSLPPCALSNPDYC-NH2)
pIC50 [1]: 7.21 | pIC50 [4]: 7.21

CN1C2CC[C@@H]1CC2c1ccnnc1 (some centres not stated)
pEC50 [11]: 4.60 | pEC50 [20]: 7.89 | pEC50 [18]: 6.49

CCOc1cncc(/C=C/CCN)c1
Rmax [6]: 55% | Rmax [8]: 16%

CCCC1CCCNC(c2cccnc2)C1 (configuration not stated)
Rmax [10]: 5% | Rmax [6]: 2% | Rmax [7]: 3% | pEC50 [11]: 4.36

O=C1NCC2(CN3CCC2CC3)O1 (configuration not stated)
Rmax [12]: 78% | pEC50 [21]: < 2.70 | pEC50 [23]: < 3.00 | pEC50 [24]: < 3.00
